Results taken from patent publication US20100021950A1, “SCREENING METHOD FOR ANTI-DIABETIC COMPOUNDS” (priority 2007, published 2010).
Like-named read-outs stand apart in the source and are kept apart here.

B1: wt EphA5: full-length EphA5 protein over-expressed in MIN6 cells from pEGFP-wtEphA5 (protein, UniProt Q60629 1-876, looked up)
chain: MRGSGPRGAGHRRTQGRGGGDDTPRVPASLAGCYSAPLKGPLWTCLLLCAALRTLLASPSNEVNLLDSRTVMGDLGWIAFPKNGWEEIGEVDENYAPIHTYQVCKVMEQNQNNWLLTSWISNEGASRIFIELKFTLRDCNSLPGGLGTCKETFNMYYFESDDENGRSIKENQYIKIDTIAADESFTELDLGDRVMKLNTEVRDVGPLSKKGFYLAFQDVGACIALVSVRVYYKKCPSVVRHLAIFPDTITGADSSQLLEVSGSCVNHSVTDDPPKMHCSAEGEWLVPIGKCMCKAGYEEKNGTCQAPSPVTNVKKGKIAKNSISLSWQEPDRPNGIILEYEIKYFEKDQETSYTIIKSKETSITAEGLKPASVYVFQIRARTAAGYGVFSRRFEFETTPVSVAASNDQSQIPIIAVSVTVGVILLAVMIGFLLSGSCCDCGCGRASSLCAVAHPSLIWRCGYSKAKQDPEEEKMHFHNGHIKLPGVRTYIDPHTYEDPNQAVHEFAKEIEASCITIERVIGAGEFGEVCSGRLKLPGKRELPVAIKTLKVGYTEKQRRDFLGEASIMGQFDHPNIIHLEGVVTKSKPVMIVTEYMENGSLDTFLKKNDGQFTVIQLVGMLRGIAAGMKYLSDMGYVHRDLAARNILINSNLVCKVSDFGLSRVLEDDPEAAYTTRGGKIPIRWTAPEAIAFRKFTSSSDVWSYGIVMWEVVSYGERPYWEMTNQDVIKAVEEGYRLPSPMDCPAALYQLMLDCWQKDRNSRPKFDEIVNMLDKLIRNPSSLKTLVNASSRVSTLLAEHGSLGSGAYRSVGEWLEAIKMGRYTEIFMENGYSSMDAVAQVTLEDLRRLGVTLVGHQKKIMSSLQEMKVQMVNGMVPV
modifications: full-length EGFP fusion
notes: full-length EphA5 protein over-expressed in MIN6 cells from pEGFP-wtEphA5

Key:
MIN6 cells = assay: Insulin secretion from MIN6 cells; type: cell-based, mouse; conditions: 25 mM glucose
Source text: MIN6 cells (Miyazaki et al. (1990) Endocrinol. 127, 126) at passages 37-47 were maintained as previously described (Nikolova et al. (2006) Dev. Cell 10, 397). The cells were electroporated with pEGFP, pEGFP-wtEphA5 (Gao et al. (1998) Proc. Natl. Acad. Sci. U.S.A. 95, 5329), pEGFP-DN-EphA5 (Gao et al. (1998) Proc. Natl. Acad. Sci. U.S.A. 95, 5329), pEGFP-ephrin-A5, (Wimmer-Kleikamp et al. (2004) J. Cell Biol. 164, 661), pEGFP-wtRac1, pEGFP-DN-Rac1 (Rac1N17) (Hall (2005) Biochem. Soc. Trans. 33, 891) and pcDNA-Cx36 constructs (Ravier et al. (2005) Diabetes 54, 1798); siRNA against firefly luciferase (control siRNA), ephrin-A5 and Cx36 by using Amaxa nucleofection (Amaxa biosystems).
For insulin secretion measurements, islets or MIN6 cells were starved for 1 h in Krebs Ringer Buffer (KRB) containing 115 mM NaCl, 5 mM KCl, 1.2 mM KH2PO4, 1 mM MgSO4, 2.5 mM CaCl2, 24 mM NaHCO3, 2 mM glucose, 25 mM HEPES (pH 7.4), and 0.1% bovine serum albumin. After starvation, medium was exchanged for the same buffer +/− Fc fusion proteins to measure basal secretion, or for KRB containing 25 mM glucose +/− Fc fusion proteins to measure glucose-stimulated insulin secretion, during 1 h incubation. When Fc fusion proteins were used, islets were continuously shaken (300-500 rpm) to facilitate access of Fc fusion proteins to islet β-cells. The amount of secreted insulin was measured in the medium, and islets or MIN6 cells were subsequently dissolved in RIPA buffer to measure insulin content and total protein content. Secreted insulin was normalized to total insulin content and total protein content, and presented as % of basal control insulin secretion. In all histograms, the first column represents the basal control (=100%), except in FIG. 3C, in which the third column is taken as basal control. Secreted insulin and insulin content were measured by using ultra-sensitive rat insulin ELISA kit (Crystal Chem inc.). The total protein content was measured using BCA kit (Molecular Probes). […]

mouse pancreatic islets [1] = conditions: 10 μM, Gogg et al. (2001); cited from earlier work
mouse pancreatic islets [2] = assay: Insulin secretion from mouse pancreatic islets; type: cell-based; conditions: 25 mM glucose, 1 h; Fc fusion proteins 4 μg/ml, peroxovanadate 10 μM; compared with Fc
Source text: Pancreatic islets were isolated from NMRI mice for all experiments, except for the experiments with male ephrin-A5-/- and control littermates, which were C57BL/6 (Knoll et al. (2001) Development 128, 895). All mice used were 8-10 weeks old. Human pancreatic islets were isolated from a perfused human pancreas by using a protocol approved by the Ethical Research Committee of the Technical University Medical School Dresden and according to the law of the State of Saxony. Mouse and human islets were cultured overnight in Dulbecco's modified Eagle's medium (DMEM) containing 11 mM glucose (Gibco), supplemented with 10% heat inactivated fetal calf serum (FCS), 100U/ml Penicillin, 100 μg/ml Streptomycin, 1.5 g/L NaHCO3 in a humidified atmosphere (5% CO2, 37° C.). […]
For insulin secretion measurements, islets or MIN6 cells were starved for 1 h in Krebs Ringer Buffer (KRB) containing 115 mM NaCl, 5 mM KCl, 1.2 mM KH2PO4, 1 mM MgSO4, 2.5 mM CaCl2, 24 mM NaHCO3, 2 mM glucose, 25 mM HEPES (pH 7.4), and 0.1% bovine serum albumin. […] The amount of secreted insulin was measured in the medium, and islets or MIN6 cells were subsequently dissolved in RIPA buffer to measure insulin content and total protein content. […] Secreted insulin and insulin content were measured by using ultra-sensitive rat insulin ELISA kit (Crystal Chem inc.). The total protein content was measured using BCA kit (Molecular Probes). […]

EphA5 = EphA5 immunoprecipitation and phosphotyrosine Western blot, MIN6 cells; type: cell-based, mouse; conditions: 10 μM, 25 mM glucose, 5 min
Description: MIN6 cells and pancreatic islets were lysed in RIPA buffer, supplemented with protease and phosphatase inhibitors. 1 μg total protein, isolated from MIN6 cell lysates or 500 ng total protein, isolated from islet lysates, were used for immunoprecipitation with 1:1,000-diluted rabbit-anti-EphA5 (Santa Cruz) and protein-A beads (Amersham). For immunoprecipitation/pull-down of Rac1-GTP with Pak1-PBD (P21-activated kinase-1-P21 Binding Domain) and Westem blots, a Rac1 Activation StressXPress Kit (Biomol) was used. The immunoprecipitates were separated on 4-12% gradient SDS-polyacrylamide gels (Invitrogen) and transferred onto a PVDF membrane (Amersham). For western blots, 1:500-diluted rabbit-anti-EphA5 antibody (Santa Cruz), 1:1,000-diluted mouse-anti-PY antibody (Biomol) and 1:200-diluted rabbit-anti-Rac1 antibody (Santa Cruz) were used. 1:10,000-diluted HRP-conjugated donkey-anti-rabbit antibody (Dianova) and 1:5,000-diluted HRP-conjugated goat-anti-mouse antibody (Dianova) were used as secondary antibodies. Western blots were developed using an ECL system (Amersham). The intensities of EphA5 and Rac1 bands were normalized to the intensities of total EphA5 and Rac1, respectively, and presented as % of basal control. The intensities of the bands were quantified by using TotalLab software (Stratagene).

| Molecule | glucose-stimulated insulin secretion (MIN6 cells; confluent MIN6 cells, 1 h, Fc fusion proteins 4 μg/ml, peroxovanadate 10 μM, compared with Fc) | glucose-stimulated insulin secretion (mouse pancreatic islets [1]) | glucose-stimulated insulin secretion (mouse pancreatic islets [2]) | glucose-induced EphA5 dephosphorylation (EphA5) | EphA5 phosphorylation levels at stimulatory conditions (EphA5; relative to basal levels) | glucose-stimulated insulin secretion (MIN6 cells; over-expression in confluent MIN6 cell monolayers, vs empty vector) | glucose-stimulated insulin secretion in PV-treated MIN6 cells (MIN6 cells; over-expression, 10 μM peroxovanadate, vs empty vector/PV) |
| --- | --- | --- | --- | --- | --- | --- | --- |
| peroxovanadate | reduced | strongly reduced | reduced | effectively prevented | increased |  |  |
| B1 |  |  |  |  |  | decreased | reduced |
